Data on 16 compounds can be found in patent US11180474B2 (BRISTOL-MYERS SQUIBB COMPANY, priority 2016, dated 2021).

As a reminder, the IC50 is the concentration that inhibits the measured activity by half.

One assay concerns the target T1, human TLR9 (Homo sapiens, UniProt Q9NR96).
T1 construct: host or cells: HEK-Blue cells
T1 sequence (Q9NR96 26-1032): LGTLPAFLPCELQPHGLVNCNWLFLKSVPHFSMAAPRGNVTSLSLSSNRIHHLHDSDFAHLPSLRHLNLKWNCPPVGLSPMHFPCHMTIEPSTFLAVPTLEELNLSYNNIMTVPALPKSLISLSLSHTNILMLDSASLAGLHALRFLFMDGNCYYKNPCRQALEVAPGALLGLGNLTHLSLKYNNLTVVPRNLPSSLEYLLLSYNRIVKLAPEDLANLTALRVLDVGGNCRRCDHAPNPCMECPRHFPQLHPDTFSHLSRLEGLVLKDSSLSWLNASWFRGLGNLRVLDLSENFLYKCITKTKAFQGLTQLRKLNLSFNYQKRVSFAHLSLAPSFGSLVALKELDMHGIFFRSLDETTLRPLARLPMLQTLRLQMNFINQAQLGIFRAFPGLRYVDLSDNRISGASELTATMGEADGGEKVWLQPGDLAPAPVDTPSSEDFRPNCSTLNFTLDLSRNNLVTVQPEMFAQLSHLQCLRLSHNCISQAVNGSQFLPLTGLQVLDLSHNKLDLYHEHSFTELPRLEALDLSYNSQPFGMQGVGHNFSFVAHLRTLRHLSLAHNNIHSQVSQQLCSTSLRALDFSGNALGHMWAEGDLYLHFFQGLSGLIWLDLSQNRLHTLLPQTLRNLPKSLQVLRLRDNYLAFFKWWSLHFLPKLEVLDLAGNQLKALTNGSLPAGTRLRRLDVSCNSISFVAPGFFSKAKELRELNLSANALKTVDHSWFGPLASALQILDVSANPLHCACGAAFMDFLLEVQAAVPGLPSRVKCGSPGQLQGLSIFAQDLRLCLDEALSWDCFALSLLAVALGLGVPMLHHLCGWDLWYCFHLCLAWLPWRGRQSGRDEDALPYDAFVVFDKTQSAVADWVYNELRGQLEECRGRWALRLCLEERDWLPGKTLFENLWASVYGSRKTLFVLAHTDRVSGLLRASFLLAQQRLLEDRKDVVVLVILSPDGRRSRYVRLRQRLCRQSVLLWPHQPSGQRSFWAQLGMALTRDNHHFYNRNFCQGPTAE
The experiment in a line: TLR9 inhibition reporter assay (HEK-Blue cells, SEAP reporter, ODN2006 stimulation). Conditions: HEK-Blue cells overexpressing human TLR9, ODN2006 5 nM. The class given is cell-based. In short, it runs like this: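 Dose–response from 0.05 nM to 50 μM was run in HEK-Blue human TLR7, TLR8 and TLR9 reporter cells. After 30 min at room temperature with compound, ligand was added (TLR7 gardiquimod 7.5 μM; TLR8 R848 15.9 μM; TLR9 ODN2006 5 nM) and SEAP measured next day, at 22 h.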
On the technique in general: A reporter such as luciferase makes a cellular process visible.

The target of a further assay is T2, human TLR8 (Homo sapiens, UniProt Q9NR97).
T2 construct: host or cells: HEK-Blue cells
T2 sequence (Q9NR97 27-1041): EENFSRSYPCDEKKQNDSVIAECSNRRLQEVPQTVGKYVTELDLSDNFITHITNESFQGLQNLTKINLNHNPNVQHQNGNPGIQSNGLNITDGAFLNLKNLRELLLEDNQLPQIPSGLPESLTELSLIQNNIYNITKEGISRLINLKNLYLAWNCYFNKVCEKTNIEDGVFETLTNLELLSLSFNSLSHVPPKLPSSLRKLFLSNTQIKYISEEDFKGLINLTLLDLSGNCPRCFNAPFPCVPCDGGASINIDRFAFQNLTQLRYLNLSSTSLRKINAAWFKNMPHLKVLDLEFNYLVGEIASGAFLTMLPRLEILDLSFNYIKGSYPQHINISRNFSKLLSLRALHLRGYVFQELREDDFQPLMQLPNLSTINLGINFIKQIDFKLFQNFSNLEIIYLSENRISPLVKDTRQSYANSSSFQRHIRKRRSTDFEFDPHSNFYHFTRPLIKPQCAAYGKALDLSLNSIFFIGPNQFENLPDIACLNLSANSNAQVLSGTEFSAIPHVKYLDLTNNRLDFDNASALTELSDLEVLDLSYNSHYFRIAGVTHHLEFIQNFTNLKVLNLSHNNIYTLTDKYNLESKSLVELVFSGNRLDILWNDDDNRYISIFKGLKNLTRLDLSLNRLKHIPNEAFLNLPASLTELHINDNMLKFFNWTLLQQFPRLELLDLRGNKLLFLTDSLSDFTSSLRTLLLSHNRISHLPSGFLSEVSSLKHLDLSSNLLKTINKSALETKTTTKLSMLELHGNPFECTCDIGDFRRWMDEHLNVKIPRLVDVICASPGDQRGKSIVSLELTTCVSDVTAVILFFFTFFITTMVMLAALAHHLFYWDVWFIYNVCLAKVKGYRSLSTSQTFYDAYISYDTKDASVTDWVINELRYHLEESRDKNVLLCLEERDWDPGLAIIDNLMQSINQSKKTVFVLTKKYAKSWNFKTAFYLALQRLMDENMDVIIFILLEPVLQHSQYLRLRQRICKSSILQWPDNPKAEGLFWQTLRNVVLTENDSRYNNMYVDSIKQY
Nature of the assay: TLR8 inhibition reporter assay (HEK-Blue cells, SEAP reporter, R848 stimulation). The class given is cell-based. Conditions: HEK-Blue cells overexpressing human TLR8, R848 15.9 μM. In short, it runs like this: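 In this cell reporter format, test compounds at 0.05 nM-50 μM final incubate 22 h with seeded cells (TLR7 15000, TLR8 20,000 per well). SEAP read-out by HEK-Blue Detection medium yields % inhibition relative to agonist/DMSO and known-inhibitor wells.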

For the compound `COc1ccc(-c2[nH]c3ccc(C4CCN(CC(=O)N[C@H]5CC[C@H](C(C)(C)O)CC5)CC4)cc3c2C(C)C)cc1OC` [Example 279, 2-(4-(2-(3,4-dimethoxyphenyl)-3-isopropyl-1H-indol-5-yl)piperidin-1-yl)-N-((1r,4r)-4-(2-hydroxypropan-2-yl)cyclohexyl)acetamide], the IC50 came out at 18 µM against human TLR9 and 1.16 µM at human TLR8.

Consider `COc1ccc(-c2[nH]c3ccc(C4CCN(C(=O)CN5CCCN(C)CC5)CC4)cc3c2C(C)C)cc1OC` [Example 239, 1-(4-(2-(3,4-dimethoxyphenyl)-3-isopropyl-1H-indol-5-yl)piperidin-1-yl)-2-(4-methyl-1,4-diazepan-1-yl)ethan-1-one], for which the figures for the IC50 against human TLR9 and against human TLR8 were 0.516 µM and 0.017 µM, respectively.

For `COc1ccc(-c2[nH]c3ccc(C4CCN(Cc5cnn(C)c5)CC4)cc3c2C(C)C)cc1OC` [Example 259, 2-(3,4-dimethoxyphenyl)-3-isopropyl-5-(1-((1-methyl-1H-pyrazol-4-yl)methyl)piperidin-4-yl)-1H-indole], the half-inhibitory concentration (IC50) is 2.03 µM at human TLR9 and 0.011 µM at human TLR8.

In the case of `COc1ccc(-c2[nH]c3ccc(C4CCN(C5C[C@H]6CC[C@@H](C5)N6C)CC4)cc3c2C)cc1OC` (stereo partly drawn) [Example 21, 2-(3,4-dimethoxyphenyl)-3-methyl-5-(1-((1R,5S)-8-methyl-8-azabicyclo[3.2.1]octan-3-yl)piperidin-4-yl)-1H-indole], the IC50 is 0.083 µM against human TLR9 and 0.242 µM at human TLR8.

With `COc1ccc(-c2[nH]c3ccc(C4CCNCC4O)cc3c2C(C)C)cc1OC` (single isomer, unassigned) [Example 317, 4-(2-(3,4-dimethoxyphenyl)-3-isopropyl-1H-indol-5-yl)piperidin-3-ol 2,2,2-trifluoroacetate], the values for the IC50 against human TLR9 and at human TLR8 were 4.72 µM and 0.082 µM, respectively.

In the case of `COc1ccc(-c2[nH]c3ccc(C4CCN(C(=O)CN5CCC[C@@H](C(=O)NCC#N)C5)CC4)cc3c2C(C)C)cc1OC` [Example 308, (R)—N-(cyanomethyl)-1-(2-(4-(2-(3,4-dimethoxyphenyl)-3-isopropyl-1H-indol-5-yl)piperidin-1-yl)-2-oxoethyl)piperidine-3-carboxamide], the IC50 was 2.61 µM against human TLR9 and 0.041 µM against human TLR8.

For the compound `COc1ccc(-c2[nH]c3ccc(C4CCN(C(=O)CN5CCC[C@@H](C(=O)N(C)C(C)C)C5)CC4)cc3c2C(C)C)cc1OC` [Example 304, (R)-1-(2-(4-(2-(3,4-dimethoxyphenyl)-3-isopropyl-1H-indol-5-yl)piperidin-1-yl)-2-oxoethyl)-N-isopropyl-N-methylpiperidine-3-carboxamide], the IC50 against human TLR9 worked out at 2.75 µM; against human TLR8, 0.061 µM.

For `COc1ccc(-c2[nH]c3ccc(C4CCN(C(=O)CNC[C@@H](F)C(C)(C)O)CC4)cc3c2C(C)C)cc1OC` [Example 251, (R)-1-(4-(2-(3,4-dimethoxyphenyl)-3-isopropyl-1H-indol-5-yl)piperidin-1-yl)-2-((2-fluoro-3-hydroxy-3-methylbutyl)amino) ethan-1-one], the IC50 against human TLR9 stood at 15.3 µM; against human TLR8 it was 0.75 µM.

As for `COc1ccc(-c2[nH]c3ccc(C4CCN(C(=O)CN5CCC[C@H](C(=O)N6CC7CNCC7C6)C5)CC4)cc3c2C(C)C)cc1OC` (some centres unmarked) [Example 299, 1-(4-(2-(3,4-dimethoxyphenyl)-3-isopropyl-1H-indol-5-yl)piperidin-1-yl)-2-((3 S)-3-(octahydropyrrolo[3,4-c]pyrrole-2-carbonyl)piperidin-1-yl)ethan-1-one], the IC50 came out at 6.99 µM against human TLR9 and 0.128 µM at human TLR8.

Consider `COc1ccc(-c2[nH]c3ccc(C4CCN(C(=O)CN5CCC[C@H](C(=O)N6CCN(c7cccc(C(F)(F)F)c7)CC6)C5)CC4)cc3c2C(C)C)cc1OC` [Example 290, (S)-1-(4-(2-(3,4-dimethoxyphenyl)-3-isopropyl-1H-indol-5-yl)piperidin-1-yl)-2-(3-(4-(3-(trifluoromethyl)phenyl)piperazine-1-carbonyl)piperidin-1-yl)ethan-1-one], for which the IC50 is 5.34 µM at human TLR9 and 0.803 µM at human TLR8.

Consider `COc1ccc(-c2[nH]c3ccc(C4CCN(C(=O)CN5CCC[C@@H](C(=O)N6CCN(C(C)C)CC6)C5)CC4)cc3c2C(C)C)cc1OC` [Example 302, (R)-1-(4-(2-(3,4-dimethoxyphenyl)-3-isopropyl-1H-indol-5-yl)piperidin-1-yl)-2-(3-(4-isopropylpiperazine-1-carbonyl)piperidin-1-yl)ethan-1-one], for which the IC50 at human TLR9 was 0.564 µM; against human TLR8, 0.018 µM.

Regarding `COc1ccc(-c2[nH]c3ccc(C4CCN(C(=O)CN5CCCN(C(C)=O)CC5)CC4)cc3c2C(C)C)cc1OC` [Example 222, 2-(4-acetyl-1,4-diazepan-1-yl)-1-(4-(2-(3,4-dimethoxyphenyl)-3-isopropyl-1H-indol-5-yl)piperidin-1-yl)ethan-1-one], the IC50 on human TLR9 was 6.88 µM; on human TLR8, 0.067 µM.

In the case of `COc1ccc(-c2[nH]c3ccc(C4CCN(C(=O)CNCC(N)=O)CC4)cc3c2C(C)C)cc1OC` [Example 228, 2-((2-(4-(2-(3,4-dimethoxyphenyl)-3-isopropyl-1H-indol-5-yl)piperidin-1-yl)-2-oxoethyl)amino)acetamide], the figures for the IC50 against human TLR9 and against human TLR8 were 15.1 µM and 0.118 µM, respectively.

With `COc1ccc(-c2[nH]c3ccc(C4CCN(C(=O)CNCCC(C)O)CC4)cc3c2C(C)C)cc1OC` (centres unmarked) [Example 237, 1-(4-(2-(3,4-dimethoxyphenyl)-3-isopropyl-1H-indol-5-yl)piperidin-1-yl)-2-((3-hydroxybutyl)amino)ethan-1-one], the IC50 was 1.16 µM at human TLR9 and 0.022 µM on human TLR8.

Regarding `COc1ccc(-c2[nH]c3ccc(C4CCN(C(=O)CN5CCC(N6CCN(C)CC6)CC5)CC4)cc3c2C(C)C)cc1OC` [Example 241, 1-(4-(2-(3,4-dimethoxyphenyl)-3-isopropyl-1H-indol-5-yl)piperidin-1-yl)-2-(4-(4-methylpiperazin-1-yl)piperidin-1-yl)ethan-1-one], the figures for the IC50 against human TLR9 and on human TLR8 were 0.571 µM and 0.013 µM, respectively.

For `COc1ccc(-c2[nH]c3ccc(C4CCN(C(=O)CN5CCCC(CO)C5)CC4)cc3c2C(C)C)cc1OC` (centres unmarked) [Example 226, 1-(4-(2-(3,4-dimethoxyphenyl)-3-isopropyl-1H-indol-5-yl)piperidin-1-yl)-2-(3-(hydroxymethyl)piperidin-1-yl)ethan-1-one], the IC50 came out at 1.42 µM on human TLR9 and 0.017 µM on human TLR8.
